Data reported in patent US9346815B2, “5-chloro-2-difluoromethoxyphenyl pyrazolopyrimidine compounds, compositions and methods of use thereof” (Genentech, Inc., priority 2014, dated 2016).
pKi: −log10 of the molar value. Structures can show the parent of a compound that is named as a salt. Where two headings read alike, the source gives them in different places.

Assays:
[1] = target: isolated recombinant JAK1 kinase domain (Homo sapiens (Human), UniProt P23458); assay: JAK1 enzyme assay (Caliper LabChip, peptide phosphorylation); type: biochemical
[2] = target: isolated recombinant JAK2 kinase domain (Homo sapiens (Human), UniProt O60674); assay: JAK2 enzyme assay (Caliper LabChip, peptide phosphorylation); type: biochemical; conditions: 25 μM ATP
[3] = system: JAK1-dependent STAT6 phosphorylation downstream of IL-13 stimulation in BEAS-2B human bronchial epithelial cells; assay: JAK1 pathway assay in BEAS-2B cells (IL-13-pSTAT6, MSD); type: cell-based; conditions: read-out: IL13-pSTAT6 EC50 (uM)_BEAS-2B
Outline: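 Cells were preincubated with compounds (0.2% DMSO) for 30 min (TF-1, GM-CSF-starved overnight, serum-free OptiMEM, 300,000 cells/well) or 1 h (BEAS-2B, complete medium, 100,000 cells/well) at 37 °C.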

[4] = isolated recombinant JAK1 kinase domain, 25 μM ATP

Chain of isolated recombinant JAK1 kinase domain (P23458 875-1153): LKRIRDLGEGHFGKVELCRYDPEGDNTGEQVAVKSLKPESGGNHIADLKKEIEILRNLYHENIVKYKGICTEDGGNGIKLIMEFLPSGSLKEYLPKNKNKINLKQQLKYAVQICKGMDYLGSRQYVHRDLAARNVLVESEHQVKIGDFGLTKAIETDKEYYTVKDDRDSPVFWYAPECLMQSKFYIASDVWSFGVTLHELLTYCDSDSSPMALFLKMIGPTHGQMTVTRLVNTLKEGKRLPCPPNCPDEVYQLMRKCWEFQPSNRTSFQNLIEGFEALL
Chain of isolated recombinant JAK2 kinase domain (O60674 849-1124): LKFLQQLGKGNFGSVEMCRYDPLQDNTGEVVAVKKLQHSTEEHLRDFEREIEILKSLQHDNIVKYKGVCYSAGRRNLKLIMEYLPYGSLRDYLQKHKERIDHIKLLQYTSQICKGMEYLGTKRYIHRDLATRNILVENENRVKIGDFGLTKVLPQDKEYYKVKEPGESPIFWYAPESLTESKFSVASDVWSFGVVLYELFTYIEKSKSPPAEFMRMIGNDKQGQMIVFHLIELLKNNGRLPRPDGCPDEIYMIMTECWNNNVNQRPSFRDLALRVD

SMILES	pKi [1, 4]	pKi [2]	EC50 [3]	pKi [1]
O=C(Nc1cn(CCNCc2cccc(O)c2)nc1-c1cc(Cl)ccc1OC(F)F)c1cnn2cccnc12 [Example 327, N-[3-[5-chloro-2-(difluoromethoxy)phenyl]-1-(2-[[(3-hydroxyphenyl)methyl]amino]ethyl)-1H-pyrazol-4-yl]pyrazolo[1,5-a]pyrimidine-3-carboxamide]	9.60	9.70	0.0077 µM	–
O=C(Nc1cn(CCNCc2ccc(O)cc2)nc1-c1cc(Cl)ccc1OC(F)F)c1cnn2cccnc12 [Example 328, N-[3-[5-chloro-2-(difluoromethoxy)phenyl]-1-(2-[[(4-hydroxyphenyl)methyl]amino]ethyl)-1H-pyrazol-4-yl]pyrazolo[1,5-a]pyrimidine-3-carboxamide]	9.68	9.64	0.0102 µM	–
COC(=O)CNC1CCN(C(=O)Cn2cc(NC(=O)c3cnn4cccnc34)c(-c3cc(Cl)ccc3OC(F)F)n2)CC1 [Example 329, methyl 2-[[1-(2-[3-[5-chloro-2-(difluoromethoxy)phenyl]-4-[pyrazolo[1,5-a]pyrimidine-3-amido]-1H-pyrazol-1-yl]acetyl)piperidin-4-yl]amino]acetate formate]	–	9.12	0.0115 µM	9.52
COC(=O)C1CCN(CCN2CCN(C(=O)Cn3cc(NC(=O)c4cnn5cccnc45)c(-c4cc(Cl)ccc4OC(F)F)n3)CC2)CC1 [Example 333, methyl1-[2-[4-(2-[3-[5-chloro-2-(difluoromethoxy)phenyl]-4-[pyrazolo[1,5-a]pyrimidine-3-amido]-1H-pyrazol-1-yl]acetyl)piperazin-1-yl]ethyl]piperidine-4-carboxylate]	9.16	8.71	0.0065 µM	–
CCOC(=O)C1CCN(CCN2CCN(C(=O)Cn3cc(NC(=O)c4cnn5cccnc45)c(-c4cc(Cl)ccc4OC(F)F)n3)CC2)CC1 [Example 334, ethyl 1-[2-[4-(2-[3-[5-chloro-2-(difluoromethoxy)phenyl]-4-[pyrazolo[1,5-a]pyrimidine-3-amido]-1H-pyrazol-1-yl]acetyl)piperazin-1-yl]ethyl]piperidine-4-carboxylate]	9.16	8.74	0.0061 µM	–
COC(=O)C1(C)CCN(CCN2CCN(C(=O)Cn3cc(NC(=O)c4cnn5cccnc45)c(-c4cc(Cl)ccc4OC(F)F)n3)CC2)CC1 [Example 335, methyl 1-[2-[4-(2-[3-[5-chloro-2-(difluoromethoxy)phenyl]-4-[pyrazolo[1,5-a]pyrimidine-3-amido]-1H-pyrazol-1-yl]acetyl)piperazin-1-yl]ethyl]-4-methylpiperidine-4-carboxylate formate]	9.08	8.65	0.0121 µM	–

More lines, main results first:

pKi [1, 4]	pKi [2]	SMILES	EC50 [3]	pKi [1]
9.31	8.98	O=C(Nc1cn(CC(=O)N2CCC(C(=O)OCCN3CCOCC3)CC2)nc1-c1cc(Cl)ccc1OC(F)F)c1cnn2cccnc12 [Example 336, 2-(morpholin-4-yl)ethyl 1-(2-[3-[5-chloro-2-(difluoromethoxy)phenyl]-4-[pyrazolo[1,5-a]pyrimidine-3-amido]-1H-pyrazol-1-yl]acetyl)piperidine-4-carboxylate]	0.0145 µM	–
9.08	8.60	CCOC(=O)C1(C)CCN(CCN2CCN(C(=O)Cn3cc(NC(=O)c4cnn5cccnc45)c(-c4cc(Cl)ccc4OC(F)F)n3)CC2)CC1 [Example 337, ethyl 1-[2-[4-(2-[3-[5-chloro-2-(difluoromethoxy)phenyl]-4-[pyrazolo[1,5-a]pyrimidine-3-amido]-1H-pyrazol-1-yl]acetyl)piperazin-1-yl]ethyl]-4-methylpiperidine-4-carboxylate formate]	0.0232 µM	–
9.39	9.00	CC1(C(=O)OCCN2CCOCC2)CCN(C(=O)Cn2cc(NC(=O)c3cnn4cccnc34)c(-c3cc(Cl)ccc3OC(F)F)n2)CC1 [Example 339, 2-(morpholin-4-yl)ethyl1-(2-[3-[5-chloro-2-(difluoromethoxy)phenyl]-4-[pyrazolo[1,5-a]pyrimidine-3-amido]-1H-pyrazol-1-yl]acetyl)-4-methylpiperidine-4-carboxylate]	0.0094 µM	–
